Laboratory results taken from PMC12423301, “Astrocytic monoamine oxidase B (MAOB)–gamma-aminobutyric acid (GABA) axis as a molecular brake on repair following spinal cord injury” (Signal Transduction and Targeted Therapy, 2025).
“Also recorded” adds a separate entry of the source.

How the values were obtained:
[1] = test system: rat SCI model; experiment: Immunohistochemistry of injured rat spinal cord; type: in vivo, Sprague-Dawley (SD) rats
Experimental: Immunohistochemistry was performed as previously described.[70] The tissue sections were blocked and treated with primary antibodies. After overnight incubation at 4 °C, species-specific fluorescent secondary antibodies were applied for visualization. The tissue sections were then stained with 4’,6-diamidino-2-phenylindole (DAPI) during mounting. This protocol allows a detailed assessment of various cellular markers involved in SCI and recovery processes.
The secondary antibodies used included FITC-donkey anti-mouse IgG (H + L) (1:150, 715-095-151), Cy^TM3-donkey anti-mouse IgG (H + L) (1:600, 715-165-151), FITC-donkey anti-rabbit IgG (H + L) (1:150, 711-095-152), Alexa Fluor 594-donkey anti-rabbit IgG (H + L) (1:500, 711-585-152), Alexa Fluor 647-donkey anti-rabbit IgG (H + L) (1:500, 711-605-152), Cy^TM3-donkey anti-chicken IgG (H + L) (1:600, 703-165-155), DyLightTM405-donkey anti-chicken IgY + + (H + L) (1:600, 703-476-155), Alexa Fluor 488-donkey anti-chicken IgY (IgG) (H + L) (1:500, 703-545-155), Alexa Fluor 594-donkey anti-chicken IgY (IgG) (H + L) (1:500, 703-585-155), Alexa Fluor 488-donkey anti-goat IgG (H + L) (1:500, 705-545-003), and Alexa Fluor 647-donkey anti-goat IgG (H + L) (1:300, 705-606-147). All secondary antibodies were purchased from Jackson ImmunoResearch.
The fluorescence images were observed via confocal laser scanning microscopy (LSM700 or LSM710, Carl Zeiss), and analyzed via the ImageJ (NIH) software. For visualizing the mCh-positive signals of proliferating or proliferated cells, Z-stack images acquired in 1-μm steps were processed for 3D surface rendering of mCh-positive signals using IMARIS software (version 9.0.1, Oxford Instruments).

[2] = Blood chemistry and liver function in monkey SCI model; type: in vivo, cynomolgus macaques (Macaca fascicularis)
Experimental: Blood samples were collected from the animals via the radial or femoral vein at three time points: 2 days, 2 weeks, and 5 weeks post-injury. All the animals were fasted for approximately 16 h prior to each collection, with water provided ad libitum. Approximately 2.0 mL of blood was drawn and placed into tubes without anticoagulant and left at room temperature for at least 90 min. The samples were then centrifuged at 3000 rpm for 10 min at room temperature to separate the serum. Finally, the serum samples were analyzed for creatinine (CREA), alkaline phosphatase (ALP), gamma-glutamyl transpeptidase (GGT), total bilirubin (TBIL), ALB, ALT, and aspartate aminotransferase (AST) levels. These biochemical parameters were measured using a TBA 120FR chemistry analyzer (Toshiba Co.).

[3] = target: hERG (Homo sapiens, UniProt Q12809); experiment: hERG assay; type: biochemical
Experimental: Protocol No. NB_KDS_ADP1_21 Confidential administration of the test substance to rats at a dose of 50-200 mg/kg daily for 2 weeks, there were no deaths.
As a result of oral administration to rats at doses of 30, 50, 75 and 100 mg/kg once daily for 4 weeks, […]
testis, epididymis and lungs. Renal epithelial hyperplasia and inflammatory cells infiltration in the renal pelvis observed in the male and female dose groups of 75 mg/kg or more, germ cell degeneration/loss and seminiferous tubules atrophy observed in the male dose groups of 75 mg/kg or more, and vacuole/degeneration of outer medullary tubules and basophilic tubules observed in the female dose groups were judged to be adverse effects due to administration of the test substance. […] Accordingly, in repeated administrations of rats for 4 weeks, the NOAEL(No Observed Adverse Effect Level) was determined to be 50 mg/kg/day for males and 30 mg/kg for females. […]
In a pharmacokinetic study, plasma PK parameters were measured after a single oral administration of […]
a result of measuring excretion into urine, feces, expiration, and bile, 6.9% was excreted in urine and 48.5% in feces, respectively, up to 168 hours after administration. Excretion to air through respiration was about 0.0% until 48 hours after administration, and 44.1% of the administered radioactivity concentration was present in the body (carcass). […]

[4] = test system: Parkinson’s disease mouse model; conditions: cited from earlier work
[5] = SCI+KDS 10mpk, 20mpk, and 30mpk vs SCI+V, PI 10w
[6] = SCI+KDS 1d/Re vs SCI+V and SCI+KDS 1d/No, PI 10w

Sequence of hERG (Q12809 whole entry): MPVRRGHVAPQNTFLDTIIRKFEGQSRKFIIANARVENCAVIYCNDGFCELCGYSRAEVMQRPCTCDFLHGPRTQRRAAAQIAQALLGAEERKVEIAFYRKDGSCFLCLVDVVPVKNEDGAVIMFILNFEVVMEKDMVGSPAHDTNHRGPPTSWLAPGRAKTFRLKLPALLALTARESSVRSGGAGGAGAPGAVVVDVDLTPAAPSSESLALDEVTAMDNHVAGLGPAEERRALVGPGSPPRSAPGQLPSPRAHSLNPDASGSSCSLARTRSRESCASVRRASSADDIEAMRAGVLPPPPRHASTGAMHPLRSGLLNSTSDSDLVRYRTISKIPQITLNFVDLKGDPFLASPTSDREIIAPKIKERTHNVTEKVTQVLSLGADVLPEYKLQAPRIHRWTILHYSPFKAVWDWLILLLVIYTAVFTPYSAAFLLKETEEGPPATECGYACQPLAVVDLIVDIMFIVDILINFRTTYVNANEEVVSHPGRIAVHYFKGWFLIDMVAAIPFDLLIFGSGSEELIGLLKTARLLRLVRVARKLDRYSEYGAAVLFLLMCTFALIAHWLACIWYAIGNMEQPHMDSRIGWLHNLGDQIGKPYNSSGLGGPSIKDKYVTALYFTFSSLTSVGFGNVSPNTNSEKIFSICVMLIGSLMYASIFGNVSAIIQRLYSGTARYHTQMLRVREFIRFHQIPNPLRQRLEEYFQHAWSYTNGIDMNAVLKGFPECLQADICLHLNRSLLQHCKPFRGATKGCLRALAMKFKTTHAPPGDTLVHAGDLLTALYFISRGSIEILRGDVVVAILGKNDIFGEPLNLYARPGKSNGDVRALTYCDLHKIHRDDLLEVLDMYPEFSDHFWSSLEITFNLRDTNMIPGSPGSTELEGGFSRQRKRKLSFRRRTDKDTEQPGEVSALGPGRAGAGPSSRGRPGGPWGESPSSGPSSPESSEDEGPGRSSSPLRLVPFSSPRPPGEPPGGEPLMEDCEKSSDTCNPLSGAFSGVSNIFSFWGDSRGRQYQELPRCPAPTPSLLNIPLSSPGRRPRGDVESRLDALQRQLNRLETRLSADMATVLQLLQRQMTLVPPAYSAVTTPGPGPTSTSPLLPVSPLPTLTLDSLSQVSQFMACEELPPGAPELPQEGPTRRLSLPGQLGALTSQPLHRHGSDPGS

With `CS(=O)(=O)O.C[C@H](NCc1ccc(-c2ccc(C(F)(F)F)cc2)cc1)C(N)=O` [KDS2010, (S)-2-(((4’-Trifluoromethylbiphenyl-4-yl)methyl)amino)propanamide methane-sulfonate] the GFAP intensity ([1]; KDS2010 treatment compared with SCI + V) was “significantly reduced”, the “intensity of TrkB in neurons, oligodendrocytes, and astrocytes” value ([1]; MAOB inhibition from the subacute phase, PI 10w) was “significantly increased” and the “neurons positive for both Ki67 and NeuN” value ([1]; SCI + KDS 2w vs SCI + V, PI 10w) was “significantly increased; also recorded: significant increase”. For the same compound, the “intensity of GABA in GFAP-positive astrocytes” value ([1]; SCI + KDS 2w, 10 mpk, PI 10w) was “significantly recovered; also recorded: significantly attenuated”, the MAP2 intensity ([1]; SCI + KDS 2w, PI 10w) was “fully restored” and the MBP intensity ([1]; SCI + KDS 2w, PI 10w) was “significant recovery”. The “expression of astrocytic GFAP and MAOB” value ([1]; SCI + KDS 2w, PI 10w) was “returned to normal levels”, the “intensity of proBDNF in astrocytes and neurons” value ([1]; SCI + KDS 2w, PI 10w) was “significantly increased” and the “number of NeuN-positive neurons” value ([1]; SCI + KDS 2w, PI 10w) was “significant recovery”. The “oligodendrocytes positive for both Ki67 and MBP” value ([1]; SCI + KDS 2w, PI 10w) was “substantial population; also recorded: significantly increased”, the “intensity of GABA and astrocytic DAO” value ([1]; SCI+KDS 6w) was “significantly reduced” and the “intensity of proBDNF” value ([1]; SCI+KDS 6w vs SCI+V) was “significantly increased”. The “astrocytic GFAP and MAOB expression” value ([1]; SCI+KDS 6w vs SCI+V, PI 14w) was “significantly decreased”, the “intensity of MAP2” value ([1]; SCI+KDS 6w vs SCI+V, PI 14w) was “significant increase” and the “intensity of MBP-positive TrkB” value ([1]; SCI+KDS 6w vs SCI+V, PI 14w) was “significantly increased”. For the same compound, the “intensities of GFAP and GABA” value [1, 5] was “significantly reduced”, the “intensity of MAP2” value [1, 5] was “significant increase” and the “intensity of MBP” value [1, 5] was “significant recovery”. The “intensity of MBP-positive TrkB” value [1, 5] was “significant recovery”, the “intensity of astrocytic DAO” value [1, 5] was “significantly decreased” and the “intensity of proBDNF” value [1, 5] was “significantly increased”. The GFAP levels ([1]; SCI+KDS 1d/No) was “persistently high GFAP levels”, the “alternative diamine oxidase (DAO) pathway” value ([1]; SCI+KDS 1d/No) was “activated” and the “intensity of GABA and astrocytic DAO” value ([1]; SCI+KDS 1d/Re) was “significantly reduced”. For the same compound, the “intensity of proBDNF” value ([1]; SCI+KDS 1d/Re vs SCI+V and SCI+KDS 1d/No) was “significantly increased”, the “astrocytic GFAP and MAOB expression” value [1, 6] was “significantly decreased” and the “intensity of MAP2” value [1, 6] was “significant increase”. The “astrocytic MAOB expression” value ([1]; all doses (10mpk, 20mpk, 30mpk) vs SCI+V, PI 10w) was “significant reduction”, the “expression of CSPGs (neurocan, phosphacan)” value ([1]; rat SCI, KDS2010 treatment) was “notably reduced” and the “signs of hepatic and muscle stress” value ([2]; 3 mpk) was “no signs of stress”. The “creatine kinase (CK) and alanine transaminase (ALT) levels” value ([2]; 10 mpk, PI 2w) was “transient increases”, the “CK and ALT levels” value ([2]; 10 mpk, PI 5w) was “returned to normal” and the “albumin (ALB) levels” value ([2]; 10 mpk, PI 5w) was “moderate reduction”. The “No-Observed-Adverse-Effect Level (NOAEL)” value ([2]; monkey SCI model) was 3 mpk, the IC50 [3] was 7.8 ± 1.7 µM and the motor impairment [4] was “reverse”.
